# Experiments:
# [1] = system: lymphocytic leukemia P-388; test: Antitumor activity against lymphocytic leukemia P-388; format: in vivo, CDF1 mice (P-388 from DBA/2 mice); conditions: single i.p., 33-day observation
# Protocol: (§1) Some compounds were chosen from Compound I and antitumor activity against lymphocytic leukemia P-388 and mitomycin C-resistant P-388 was measured.
# The experiment was carried out by the following method.
# (§2) From the peritoneal cavity of P-388 ascitic tumor-bearing mice (DBA/2) 7 days after the implantation, an ascitic fluid was collected. The cell number of P-388 in the ascitic fluid was counted, and the cells were suspended in sterile physiological saline to prepare a tumor cell suspension containing 5×10^6 cells/ml. 0.2 ml (containing 1×10^6 cells) of the suspension was implanted intraperitoneally into CDF1 mice weighing 20 to 25 g. The test compound was intraperitoneally administered to each mouse of one test group consisting of 6 CDF1 mice at a single dosage in 24 hours after the implantation of the tumor. 33-Day observation gave the survived life span for each mouse. Evaluation of the effect of the test compound was made by a ratio of a mean survival days after the implantation of the mice treated with the test compound to a mean survival days of the mice untreated with the test compound in the control group (Increased Life Span, ILS%). Then, ILS*, which is a ratio of ILS % of the test compound to ILS % of mitomycin C used as a reference compound under the same conditions, was calculated and shown in Table 4.
# [2] = system: mitomycin C-resistant P-388; test: Antitumor activity against mitomycin C-resistant P-388; format: in vivo, CDF1 mice (P-388 from DBA/2 mice); conditions: single i.p.
# Protocol: as §1, §2
# Further, the experiment was carried out in the same manner as above, using lymphocytic leukemia P-388 resistant to mitomycin C. Evaluation of the effect of the test compound is shown by a ratio (ILS %) to a mean survival data of the control group (untreated mice).
# [3] = system: Sarcoma 180 solid tumor; test: Antitumor activity against sarcoma 180 solid tumor (tumor volume T/C, ED50); format: in vivo; conditions: ddY mice; for CI (chemotherapy index, LD50/ED50): sarcoma 180 solid tumor, i.p.; for ED50: Mus musculus, Sarcoma-180, ip, 168 h, i.p. 24 h after s.c. implantation, tumor volume at 7 days, dose for T/C 0.5
# Protocol: (§3) Some compounds were chosen from Compound I, and antitumor activity (ED50) against Sarcoma 180 solid tumor and acute toxicity (LD50) were measured.
# (1) Effect on sarcoma 180 solid tumor
# Sarcoma 180 cells of 5×10^6 were intraperitoneally implanted into ddY mice. Seven days after, the cells were collected from the ascites. The cells were washed once with a sterile physiological saline, and the cells were suspended in sterile physiological saline to prepare a cell suspension containing 5×10^7 cells per ml. 0.1 ml of the suspension was subcutaneously implanted into the right axilla of male ddY mice weighing 20±2 g. The test compound was dissolved in physiological saline with or without addition of Tween 80 and was administered intraperitoneally into each mouse of a group consisting of 5 mice at a dose of 0.1-0.2 ml, 24 hours after the implantation of the tumor cells.
# The anti-tumor activity was determined in the following manner. 7 days after the implantation, the major axis (a) and the minor axis (b) of the tumor were measured to calculate a value of "a×b^2 /2" which corresponds to the volume of the tumor. The anti-tumor activity was expressed by the ratio (T/C) of the volume (T) of the tumors of the group of animals administered with the test compound to the corresponding volume (C) of tumors of the untreated animals.
# (2) Determination of ED50 :
# On graph paper, T/C was indicated by an arithmetic scale on the longitudinal axis and the administered amount of the test compound was indicated by a logarithmic scale on the lateral axis. The relationship between the dose and T/C was plotted by a straight line determined by the method of least squares, from which a dose corresponding to T/C of 0.5 was obtained.
# CI in the table indicates chemotherapy index and given by:
# As is clear from this definition, the CI value reflects selective toxicity against tumor. As the CI value is larger, the effect as an antitumor agent is more excellent, and from a clinical viewpoint, allowance of chemicals in dosage becomes broader. Therefore, the CI value is one of the most important indices in evaluation of antitumor agents.
# [4] = Acute toxicity (LD50, Beherns Kaerber's method); conditions: mouse, in vivo, ip; single i.p. administration, 14 days observation, ddY mice
# Protocol: as §3
# Each animal of the test group consisting of 5 ddY mice was administered intraperitoneally once with a test compound. […] The LD50 was determined by Beherns Kaerber's method.
Structure (SMILES),"ILS* (ratio of ILS % of test compound to ILS % of mitomycin C) ([1]; P-388, dose 1.5 mg/kg)","ILS(%) (ratio to mean survival of the untreated control group) ([2]; mitomycin C-resistant P-388, dose 1.5 mg/kg)","CI (chemotherapy index, LD50/ED50) [3]",ED50 [3] [mg/kg],LD50 at 336 h [4] [mg/kg],"ILS* (ratio of ILS % of test compound to ILS % of mitomycin C) ([1]; P-388, dose 1.25 mg/kg)","ILS(%) (ratio to mean survival of the untreated control group) ([2]; mitomycin C-resistant P-388, dose 1.25 mg/kg)","ILS* (ratio of ILS % of test compound to ILS % of mitomycin C) ([1]; P-388, dose 100 mg/kg)","ILS(%) (ratio to mean survival of the untreated control group) ([2]; mitomycin C-resistant P-388, dose 100 mg/kg)"
"CO[C@@]12[C@H](COC(N)=O)C3=C(C(=O)C(C)=C4NCCN=C43)N1C[C@H]1[C@@H]2N1C (stereo partly drawn) [Compound 1, 7-N,8-N-ethyleneporfiromycin 8-imine]",0.60,135,1.73,1.5,2.6,–,–,–,–
"CC1=C2NCCN=C2C2=C(C1=O)N1C[C@H]3[C@H](N3C)[C@]1(O)[C@H]2COC(N)=O (stereo partly drawn) [Compound 2, 7-N,8-N--Ethylenemitomycin D 8-imine]",–,–,2.12,10.6,22.5,–,–,–,–
"CO[C@]12[C@@H]3[C@H](CN1C1=C(C4=NCCNC4=C(C)C1=O)[C@@H]2COC(N)=O)N3C (stereo partly drawn) [Compound 3, 7-N,8-N--Ethylenemitomycin E 8-imine]",–,–,1.51,3.7,5.6,–,–,–,–
"C=C1C2=C(C(=O)C(C)=C3NCCN=C32)N2C[C@H]3[C@H](N3C)[C@]12O (stereo partly drawn) [Compound 4, 9a-O--Demethyl-7-N,8-N--ethylenemitomycin G 8-imine]",–,–,2.11,47.5,100,–,–,–,–
"CO[C@@]12[C@H](COC(N)=O)C3=C(C(=O)C(C)=C4NC5CCCCC5N=C43)N1C[C@H]1[C@@H]2N1C (stereo partly drawn) [Compound 5, 7-N,8-N--(1,2-Cyclohexylene) porfiromycin 8-imine]",–,–,–,–,–,0.56,144,–,–
"CO[C@@]12[C@H](COC(N)=O)C3=C(C(=O)C(C)=C4NCCN=C43)N1C[C@@H]1N[C@@H]12 [Compound A, 7-N,8-N-ethylenemitomycin C 8-imine, reference compound]",–,–,1.10,5.9,6.5,–,–,0.43,107

# Source: US4853385A, “7-N,8-N-Ethylenemitomycin 8-imines” (Kyowa Hakko Kogyo Co., Ltd., priority 1987, dated 1989)
